In patent publication US8604048B2, “Pyridocarbazole type compounds and applications thereof” (Centre National de la Recherche Scientifique, priority 2009, dated 2013):

Legend:
MCF-7 cells = assay: Cell growth test (MTT), MCF-7; type: cell-based; settings: Homo sapiens, MCF7; MCF-7, MTT test after 48 h; read-out: IC50 (concentration necessary to inhibit 50% of cell growth)
Method: (§1) The cell growth tests are carried out in transparent 96-well microplates (Greiner) after having seeded 100 μl/well of a cell solution having 2·10^5 cells/ml to 5·10^5 cells/ml (depending on the cell lines). After incubating for 24 h at 37° C. with 5% CO2, the culture medium is removed and replaced with solutions of the molecule to be tested at various concentrations. The cells are incubated with these molecules for an additional 48 h at 37° C. with 5% CO2. After elimination of the medium, the cells are washed with blank RPMI (Gibco, Invitrogen) then incubated with 3-(4,5-dimethylthiazol-2-yl)-2,5-diphenyltetrazolium bromide or MTT (0.5 mg/ml final concentration) for 4 h at 37° C. with 5% CO2. MTT (Sigma Aldrich) makes it possible to estimate the viability of the cells by measuring the activity of a mitochondrial enzyme. Indeed, in living cells, mitochondrial dehydrogenases are capable of cleaving the tetrazolium ring, thus leading to the formation of formazan crystals that are insoluble in an aqueous medium. These crystals are dissolved with the addition of a solubilizing solution (isopropanol, 10% Triton X100, 0.1 N HCl). After stirring, the absorbance is measured at 570 nm using the FLUOstar OPTIMA microplate reader. […]
(§2) The viability of the cells was evaluated using an MTT test after 48 h of exposure with various concentrations of molecules (from 100 μM to 0.001 μM). […]

[1] = tested on: Glu-tubulin signal in HeLa cells; assay: Glu-tubulin dose-effect, immunofluorescence in microplates; type: cell-based, Human; settings: 2 h, highest concentrations
Method: HeLa cells are seeded in black-bottomed black 96-well microplates (Greiner 655086) by distributing 90 μl per well of a cell solution containing 40 000 cells/ml, and incubated at 37° C. with 5% CO2. 24 h later, the cells are incubated with the molecules to be tested for 2 h at 37° C. with 5% CO2. The cells are then permeabilized with warm OPT buffer for 6 minutes at 37° C. then fixed in methanol for 10 minutes at room temperature. The cells are rinsed twice with PBS/0.1% Tween® 20 and incubated with the primary antibodies YL1/2 and L4 (cf. the antibodies from Table III) diluted to 1/4000 in a solution of PBS/0.3% BSA/0.02% NaN3 overnight at 37° C. […] The various fluorescence intensities are measured using the FLUOstar OPTIMA reader. […]
A dose-effect curve measuring the variation of the amount of Glu-tubulin was produced for Compound 1 of the invention. […] The fluorescence intensity was then measured using the microplate reader.
The percentage of the signal measured represents its distance relative to the control of bioactivity (paclitaxel (Taxol®)) and to the control of bioinactivity (DMSO). The EC50 was determined using KaleidaGraph® 3.60 software.

786-O cells = assay: Cell growth test (MTT), 786-O; type: cell-based; settings: Homo sapiens, 786-0, MTT test after 48 h, read-out: IC50 (concentration necessary to inhibit 50% of cell growth)
Method: as §1, §2

NCI-H460 cells = assay: Cell growth test (MTT), NCI-H460; type: cell-based; settings: Homo sapiens; NCI-H460, MTT test after 48 h; read-out: IC50 (concentration necessary to inhibit 50% of cell growth)
Method: as §1, §2

[2] = tested on: mitochondria of HeLa cells; assay: Effect on location and morphology of the mitochondria (MitoTracker staining); type: cell-based, Human; settings: 2 h of treatment at 25 μM
Method: As for tubulin staining, the cells are grown on glass coverslips and incubated at 37° C. with 5% CO2. Three days after seeding, MitoTracker® Red CMXRos (Molecular Probes, Invitrogen) is added to the culture medium in order to reach a final concentration of 250 nM. The cells are then incubated for 30 minutes at 37° C. with 5% CO2. This marker passively diffuses through the plasma membrane and accumulates into the active mitochondria. After elimination of the medium, the cells are washed with warm medium then fixed by addition of a solution of PBS/3.7% formaldehyde for 30 minutes at 37° C. The cells are rinsed with PBS, then can be permeabilized with a solution of PBS/0.2% Triton X100 for 15 minutes at room temperature if other immunofluorescence staining are needed.

Cc1c2cc[nH]c(=O)c2c(C)c2c1[nH]c1ccc(OC(=O)c3ccccc3)cc12 [Compound 1, 9-benzoyloxy-5,11-dimethyl-2H,6H-pyrido[4,3-b]carbazol-1-one]
IC50 (MCF-7 cells): 62.2 µM
Increase in the Glu signal relative to paclitaxel [1]: slightly smaller than that of paclitaxel
IC50 (786-O cells): 55.1 µM
IC50 (NCI-H460 cells): 6.65 µM
Mitochondrial phenotype of sodium azide type [2]: does not induce the mitochondrial phenotype
